Measurements: patent publication US6900219B2, “ABCA-1 elevating compounds” (CV Therapeutics, Inc., priority 2002, dated 2005)

Test system: ABCA-1 gene
Test: compounds tested and found to elevate cellular expression of the ABCA-1 gene (Examples 1-6; test not named)
Format: cell-based
Protocol: Activity testing is conducted as described in those patents and patent applications referenced above, and in the Examples below, and by methods apparent to one skilled in the art.

Compound | cellular expression of the ABCA-1 gene
2-[(4-methylethylphenyl)carbonylamino]-1,3-thiazoline-4-carboxylic acid | elevate cellular expression of the ABCA-1 gene
2-[({2-[4-(6-chlorobenzothiazol-2-yl)piperazinyl]ethyl}oxycarbonyl)methylthio]acetic acid | elevate cellular expression of the ABCA-1 gene
6-(2-aminophenyl)-3-(methylethylthio)-2H-1,2,4-triazin-5-one | elevate cellular expression of the ABCA-1 gene
CCc1cc(OC(=O)c2ccco2)n(-c2cccc(Cl)c2)n1 [1-(3-chlorophenyl)-3-ethylpyrazol-5-yl furan-2-carboxylate] | elevate cellular expression of the ABCA-1 gene
CCCc1c(C(=O)N2CCN(C(=O)C(CC)c3ccccc3)C(C)C2)cnn1-c1nc(-c2cccc(OC)c2)cs1 (centres unmarked) [1-(4-{1-[4-(3-methoxy-phenyl)-thiazol-2-yl]-5-propyl-1H-pyrazole-4-carbonyl}-2-methyl-piperazin-1-yl)-2-phenyl-butan-1-one] | elevate cellular expression of the ABCA-1 gene
CCc1c(C(=O)N2CCN(C(=O)C(c3ccccc3)c3ccccc3)C(C)C2)cnn1-c1nc(-c2ccc(Cl)cc2)cs1 (centres unmarked) [1-(4-{1-[4-(4-chloro-phenyl)-thiazol-2-yl]-5-ethyl-1H-pyrazole-4-carbonyl}-2-methyl-piperazin-1-yl)-2,2-diphenyl-ethanone] | elevate cellular expression of the ABCA-1 gene
CCc1c(C(=O)N2CCN(C(=O)C(CC)c3ccccc3)C(C)C2)cnn1-c1nc(-c2ccc(Cl)cc2)cs1 (centres unmarked) [1-(4-{1-[4-(4-chloro-phenyl)-thiazol-2-yl]-5-ethyl-1H-pyrazole-4-carbonyl}-2-methyl-piperazin-1-yl)-2-phenyl-butan-1-one] | elevate cellular expression of the ABCA-1 gene
CCc1c(C(=O)N2CCN(C(=O)C(c3ccccc3)c3ccccc3)C(C)C2)cnn1-c1nc(-c2ccc(OC)cc2)cs1 (centres unmarked) [1-(4-{5-ethyl-1-[4-(4-methoxy-phenyl)-thiazol-2-yl]-1H-pyrazole-4-carbonyl}-2-methyl-piprazin-1-yl)-2,2-diphenyl-ethanone] | elevate cellular expression of the ABCA-1 gene
CCc1c(C(=O)N2CCN(C(=O)C(C)C)C(C)C2)cnn1-c1nc(-c2ccc(OC)cc2)cs1 (centres unmarked) [1-(4-{5-ethyl-1-[4-(4-methoxy-phenyl)-thiazol-2-yl]-1H-pyrazole-4-carbonyl}-2-metyl-piperazin-1-yl)-2-methyl-propan-1-one] | elevate cellular expression of the ABCA-1 gene
CCCCCCCC(=O)N1CCC2(CC1)OCCO2 [1-(8-aza-1,4-dioxaspiro[4.5]dec-8-yl)octan-1-one] | elevate cellular expression of the ABCA-1 gene
O=[N+]([O-])c1ccc(OCCOc2ccc([N+](=O)[O-])cc2)cc1 [1-nitro-4-[2-(4-nitrophenoxy)ethoxy]benzene] | elevate cellular expression of the ABCA-1 gene
COc1ccccc1NC(=O)N(CCc1ccccc1)C(C)c1nc2ccccc2c(=O)n1-c1ccc(Br)cc1 (centres unmarked) [1-{1-[3-(4-bromophenyl)-4-oxo-3,4-dihydro-quinazolin-2-yl]-ethyl}-3-(2-methoxy-phenyl-1-phenethylurea] | elevate cellular expression of the ABCA-1 gene
COc1ccc(-c2nc3cc(/N=C/c4cccc([N+](=O)[O-])c4)ccc3o2)cc1 [1-{5-[(1E)-1-aza-2-(3-nitrophenyl)vinyl]benzoxazol-2-yl}-4-methoxybenzene] | elevate cellular expression of the ABCA-1 gene
C1=C(c2ccccc2)Nc2nc3ccccc3n2C1c1ccccc1 (centres unmarked) [2,4-diphenyl-1,4,5-trihydropyrimidino[1,2-a]benzimidazole] | elevate cellular expression of the ABCA-1 gene
Nc1cc(C(F)(F)F)ccc1N1CCc2ccccc2C1 [2-(2-1,2,3,4-tetrahydroisoquinolyl)-5-(trifluoromethyl)phenylamine] | elevate cellular expression of the ABCA-1 gene
O=C(NC1=NC(C(=O)O)CS1)c1ccc2c(c1)OCO2 (centres unmarked) [2-(2H-benzo[3,4-d]1,3-dioxolan-5-ylcarbonylamino)-1,3-thiazoline-4-carboxylic acid] | elevate cellular expression of the ABCA-1 gene
Nc1nc(-c2ccc(Cl)cc2)nc2sc3c(c12)CCCCC3 [2-(4-chlorophenyl)-5,6,7,8,9-pentahydrocyclohepta[1,2-b]pyrimidino[5,4-d]thiophene-4-ylamine] | elevate cellular expression of the ABCA-1 gene
Nc1ccccc1-c1nc(-c2ccc(Cl)cc2)no1 [2-[3-(4-chlorophenyl)-1,2,4-oxadiazol-5-yl]phenylamine] | elevate cellular expression of the ABCA-1 gene
CC(C)(C)c1ccc(-c2nc3cccc(F)c3c(=O)o2)cc1 [2-[4-(tert-butyl)phenyl]-5-fluorobenzo[d]1,3-oxazin-4-one] | elevate cellular expression of the ABCA-1 gene
COc1ccc(/C=C/c2nc3ccccc3c(=O)[nH]2)cc1OC [2-[(1E)-2-(3,4-dimethoxyphenyl)vinyl]-3-hydroquinazolin-4-one] | elevate cellular expression of the ABCA-1 gene
O=c1oc(/C=C/c2ccc(Cl)cc2)nc2ccccc12 [2-[(1E)-2-(4-chlorophenyl)vinyl]benzo[d]1,3-oxazin-4-one] | elevate cellular expression of the ABCA-1 gene

Compound | cellular expression of the ABCA-1 gene
O=C(NC1=NC(C(=O)O)CS1)c1ccccc1C(F)(F)F (centres unmarked) [2-[(2-trifluoromethylphenyl)carbonylamino]-1,3-thiazoline-4-carboxylic acid] | elevate cellular expression of the ABCA-1 gene
COc1cc(C(=O)NC2=NC(C(=O)O)CS2)cc(OC)c1OC (centres unmarked) [2-[(3,4,5-trimethoxyphenyl)carbonylamino]-1,3-thiazoline-4-carboxylic acid] | elevate cellular expression of the ABCA-1 gene
O=C(NC1=NC(C(=O)O)CS1)c1ccc(Cl)c(Cl)c1 (centres unmarked) [2-[(3,4-dichlorophenyl)carbonylamino]-1,3-thiazoline-4-carboxylic acid] | elevate cellular expression of the ABCA-1 gene
O=C(NC1=NC(C(=O)O)CS1)c1cc(C(F)(F)F)cc(C(F)(F)F)c1 (centres unmarked) [2-[(3,5-bistrifluoromethylphenyl)carbonylamino]-1,3-thiazoline-4-carboxylic acid] | elevate cellular expression of the ABCA-1 gene
COc1cccc(C(=O)NC2=NC(C(=O)O)CS2)c1 (centres unmarked) [2-[(3-methoxyphenyl)carbonylamino]-1,3-thiazoline-4-carboxylic acid] | elevate cellular expression of the ABCA-1 gene
COc1ccc(C(=O)NC2=NC(C(=O)O)CS2)cc1 (centres unmarked) [2-[(4-methoxyphenyl)carbonylamino]-1,3-thiazoline-4-carboxylic acid] | elevate cellular expression of the ABCA-1 gene
Cc1ccc(C(=O)NC2=NC(C(=O)O)CS2)cc1 (centres unmarked) [2-[(4-methylphenyl)carbonylamino]-1,3-thiazoline-4-carboxylic acid] | elevate cellular expression of the ABCA-1 gene
Cc1ccc2nc(-c3ccc(NC(=O)c4ccco4)cc3)sc2c1 [2-furyl-N-[4-(6-methylbenzothiazol-2-yl)phenyl]carboxamide] | elevate cellular expression of the ABCA-1 gene
CS(=O)(=O)c1ccc2nc(NC(=O)c3ccco3)sc2c1 [2-furyl-N-[6-(methylsulfonyl)benzothiazol-2-yl]carboxamide] | elevate cellular expression of the ABCA-1 gene
O=C(Nc1ccc2c(c1)CCC2)c1ccco1 [2-furyl-N-indan-5-ylcarboxamide] | elevate cellular expression of the ABCA-1 gene
Cc1c(Nc2nc(-c3ccc4ccccc4c3)cs2)cccc1C(=O)O [2-methyl-3-[(4-(2-naphthyl)(1,3-thiazol-2-yl))amino]benzoic acid] | elevate cellular expression of the ABCA-1 gene
O=C(NCCc1ccccc1)c1ccc2ccccc2c1 [2-naphthyl-N-(2-phenylethyl)carboxamide] | elevate cellular expression of the ABCA-1 gene
O=C(Nc1ncc(-c2ccccc2)s1)c1ccc2ccccc2c1 [2-naphthyl-N-(5-phenyl(1,3-thiazol-2-yl))carboxamide] | elevate cellular expression of the ABCA-1 gene
O=C(Nc1nccs1)c1ccccc1C(F)(F)F [2-trifluoromethylphenyl-N-(1,3-thiazol-2-yl)carboxamide] | elevate cellular expression of the ABCA-1 gene
CC(C)(C)c1ccc(C(=O)NC2=NC(C(=O)O)CS2)cc1 (centres unmarked) [2-{[4-(tert-butyl)phenyl]carbonylamino}-1,3-thiazoline-4-carboxylic acid] | elevate cellular expression of the ABCA-1 gene
O=C(Nc1cccc(Cl)c1)Nc1ccccc1C(=O)O [2-{[N-(3-chlorophenyl)carbamoyl]amino}benzoic acid] | elevate cellular expression of the ABCA-1 gene
O=C(Nc1ccc(Cl)cc1)Nc1ccccc1C(=O)O [2-{[N-(4-chlorophenyl)carbamoyl]amino}benzoic acid] | elevate cellular expression of the ABCA-1 gene
O=C(NC1=NCCS1)c1ccc2c(c1)OCO2 [2H-benzo[3,4-d]1,3-dioxolan-5-yl-N-(1,3-thiazolin-2-yl)carboxamide] | elevate cellular expression of the ABCA-1 gene
CCn1c2ccccc2c2cc(CN(CCc3ccccc3)C(=O)c3ccc4c(c3)OCO4)ccc21 [2H-benzo[d]1,3-dioxolen-5-yl-N-[(9-ethylcarbazol-3-yl)methyl]-N-(2-phenylethyl)carboxamide] | elevate cellular expression of the ABCA-1 gene
CCCn1c(C(CC)N(Cc2ccccc2)C(=O)CC(C)CC(C)(C)C)nc2ccccc2c1=O (centres unmarked) [3,5,5-trimethylhexanoic acid benzyl-[1-(4-oxo-3-propyl-3,4-dihydro-quinazolin-2-yl)propyl]-amide] | elevate cellular expression of the ABCA-1 gene
